Test system: HOP-62 complex spheroids with HUVEC/MSC, viability
Experiment: Anticancer human tumor HOP-62 cell line growth inhibition [RAS];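 also: spheroids exposed to agents for seven days before readout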;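 as to viability, T/C: 100% = DMSO vehicle control viability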
Details: for IC50: curve of first compound; for viability, T/C: stronger effect = lower value
In short: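 Tumour cells grown as complex spheroids with HUVEC endothelial cells and mesenchymal stem cells, treated with RAS pathway inhibitor combinations. Each agent spans half-log steps from near clinical Cmax, or 10 microM where Cmax is unknown.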

[1] = second compound 0.000949 µM, first compound 0.0316 µM
[2] = second compound 0.000949 µM, first compound 0.1 µM
[3] = second compound 0.000949 µM, first compound 0.316 µM
[4] = second compound 0.000949 µM, first compound 1 µM
[5] = second compound 0.000949 µM, first compound 3.16 µM
[6] = second compound 0.000949 µM, first compound 10 µM
[7] = second compound 0.003 µM, first compound 0.0316 µM
[8] = second compound 0.003 µM, first compound 0.1 µM
[9] = second compound 0.003 µM, first compound 0.316 µM
[10] = second compound 0.003 µM, first compound 1 µM
[11] = second compound 0.003 µM, first compound 3.16 µM
[12] = second compound 0.003 µM, first compound 10 µM
[13] = second compound 0.00949 µM, first compound 0.0316 µM
[14] = second compound 0.00949 µM, first compound 0.1 µM
[15] = second compound 0.00949 µM, first compound 0.316 µM
[16] = second compound 0.00949 µM, first compound 1 µM
[17] = second compound 0.00949 µM, first compound 3.16 µM
[18] = second compound 0.00949 µM, first compound 10 µM
[19] = second compound 0.03 µM, first compound 0.0316 µM
[20] = second compound 0.03 µM, first compound 0.1 µM
[21] = second compound 0.03 µM, first compound 0.316 µM
[22] = second compound 0.03 µM, first compound 1 µM
[23] = second compound 0.03 µM, first compound 3.16 µM
[24] = second compound 0.03 µM, first compound 10 µM
[25] = second compound 0.0949 µM, first compound 0.0316 µM
[26] = second compound 0.0949 µM, first compound 0.1 µM
[27] = second compound 0.0949 µM, first compound 0.316 µM
[28] = second compound 0.0949 µM, first compound 1 µM
[29] = second compound 0.0949 µM, first compound 3.16 µM
[30] = second compound 0.0949 µM, first compound 10 µM
[31] = second compound 0.3 µM, first compound 0.0316 µM
[32] = second compound 0.3 µM, first compound 0.1 µM
[33] = second compound 0.3 µM, first compound 0.316 µM
[34] = second compound 0.3 µM, first compound 1 µM
[35] = second compound 0.3 µM, first compound 3.16 µM
[36] = second compound 0.3 µM, first compound 10 µM

`CC(C)NCC(C(=O)N1CCN(c2ncnc3c2C(C)CC3O)CC1)c1ccc(Cl)cc1` (stereo unspecified) + CCn1c(-c2cccnc2C(C)OC)c2c3cc(ccc31)N1CCOC(CC(NC(=O)C(C(C)C)N(C)C(=O)C3(F)CCN(C(=O)C#CC(C)(C)N(C)C)CC3)C(=O)N3CCCC(N3)C(=O)OCC(C)(C)C2)C1 showed an IC50 (second compound 0.000949 µM) of 3570 nM, an IC50 (second compound 0.003 µM) of 2210 nM and an IC50 (second compound 0.00949 µM) of 1650 nM. It also gave an IC50 (second compound 0.03 µM) of 1120 nM, an IC50 (second compound 0.0949 µM) of 1170 nM and an IC50 (second compound 0.3 µM) of 742 nM. For the same compound, the viability, T/C [1] was 98.8%, the viability, T/C [2] was 119% and the viability, T/C [3] was 65.4%. The viability, T/C [4] was 76.4%, the viability, T/C [5] was 61.6% and the viability, T/C [6] was 20.3%. The viability, T/C [7] was 101%, the viability, T/C [8] was 105% and the viability, T/C [9] was 65.3%. For the same compound, the viability, T/C [10] was 67.7%, the viability, T/C [11] was 47.1% and the viability, T/C [12] was 21.2%. It also gave a viability, T/C [13] of 81.7%, a viability, T/C [14] of 100% and a viability, T/C [15] of 80.1%. For the same compound, the viability, T/C [16] was 58.9%, the viability, T/C [17] was 38.5% and the viability, T/C [18] was 22%. The viability, T/C [19] was 122%, the viability, T/C [20] was 83.4% and the viability, T/C [21] was 72%. The viability, T/C [22] was 61.8%, the viability, T/C [23] was 28.3% and the viability, T/C [24] was 23%. For the same compound, the viability, T/C [25] was 79%, the viability, T/C [26] was 80.4% and the viability, T/C [27] was 69%. It also gave a viability, T/C [28] of 56.2%, a viability, T/C [29] of 25.5% and a viability, T/C [30] of 21.1%. It also gave a viability, T/C [31] of 73.2%, a viability, T/C [32] of 78.9% and a viability, T/C [33] of 59.3%. For the same compound, the viability, T/C [34] was 47%, the viability, T/C [35] was 26.4% and the viability, T/C [36] was 16.6%.

Compound `CC(C)n1nc(-c2ccc3oc(N)nc3c2)c2c(N)ncnc21` + CCn1c(-c2cccnc2C(C)OC)c2c3cc(ccc31)N1CCOC(CC(NC(=O)C(C(C)C)N(C)C(=O)C3(F)CCN(C(=O)C#CC(C)(C)N(C)C)CC3)C(=O)N3CCCC(N3)C(=O)OCC(C)(C)C2)C1 has an IC50 (second compound 0.000949 µM) of 31.6 nM, an IC50 (second compound 0.003 µM) of 11.8 nM and an IC50 (second compound 0.00949 µM) of 10.9 nM. For the same compound, the IC50 (second compound 0.03 µM) was 17.3 nM, the IC50 (second compound 0.0949 µM) was 7 nM and the IC50 (second compound 0.3 µM) was 6.72 nM. The viability, T/C (second compound 0.000949 µM, first compound 0.000316 µM) was 118%, the viability, T/C (second compound 0.000949 µM, first compound 0.001 µM) was 107% and the viability, T/C (second compound 0.000949 µM, first compound 0.00316 µM) was 64.2%. It also gave a viability, T/C (second compound 0.000949 µM, first compound 0.01 µM) of 74.7%, a viability, T/C [1] of 55.6% and a viability, T/C [2] of 30.6%. The viability, T/C (second compound 0.003 µM, first compound 0.000316 µM) was 105%, the viability, T/C (second compound 0.003 µM, first compound 0.001 µM) was 81% and the viability, T/C (second compound 0.003 µM, first compound 0.00316 µM) was 58.8%. It also gave a viability, T/C (second compound 0.003 µM, first compound 0.01 µM) of 56.3%, a viability, T/C [7] of 45.7% and a viability, T/C [8] of 25.4%. It also gave a viability, T/C (second compound 0.00949 µM, first compound 0.000316 µM) of 94.9%, a viability, T/C (second compound 0.00949 µM, first compound 0.001 µM) of 64% and a viability, T/C (second compound 0.00949 µM, first compound 0.00316 µM) of 65.3%. The viability, T/C (second compound 0.00949 µM, first compound 0.01 µM) was 53.4%, the viability, T/C [13] was 44.5% and the viability, T/C [14] was 26.1%. It also gave a viability, T/C (second compound 0.03 µM, first compound 0.000316 µM) of 80.7%, a viability, T/C (second compound 0.03 µM, first compound 0.001 µM) of 75.6% and a viability, T/C (second compound 0.03 µM, first compound 0.00316 µM) of 71.1%. It also gave a viability, T/C (second compound 0.03 µM, first compound 0.01 µM) of 67.7%, a viability, T/C [19] of 30.1% and a viability, T/C [20] of 30.6%. It also gave a viability, T/C (second compound 0.0949 µM, first compound 0.000316 µM) of 85.7%, a viability, T/C (second compound 0.0949 µM, first compound 0.001 µM) of 67.8% and a viability, T/C (second compound 0.0949 µM, first compound 0.00316 µM) of 61%. The viability, T/C (second compound 0.0949 µM, first compound 0.01 µM) was 52.2%, the viability, T/C [25] was 25.6% and the viability, T/C [26] was 30%. The viability, T/C (second compound 0.3 µM, first compound 0.000316 µM) was 75.7%, the viability, T/C (second compound 0.3 µM, first compound 0.001 µM) was 77.8% and the viability, T/C (second compound 0.3 µM, first compound 0.00316 µM) was 59.8%. For the same compound, the viability, T/C (second compound 0.3 µM, first compound 0.01 µM) was 45.3%, the viability, T/C [31] was 32.2% and the viability, T/C [32] was 30.6%.

In the case of `C[C@@H](NC(=O)c1ncnc(N)c1Cl)c1ncc(C(=O)Nc2cc(C(F)(F)F)c(Cl)cn2)s1` + CCn1c(-c2cccnc2C(C)OC)c2c3cc(ccc31)N1CCOC(CC(NC(=O)C(C(C)C)N(C)C(=O)C3(F)CCN(C(=O)C#CC(C)(C)N(C)C)CC3)C(=O)N3CCCC(N3)C(=O)OCC(C)(C)C2)C1, the IC50 (second compound 0.000949 µM) is reported as > 10000 nM, the IC50 (second compound 0.003 µM) is reported as > 10000 nM and the IC50 (second compound 0.00949 µM) is reported as > 10000 nM. For the same compound, the IC50 (second compound 0.03 µM) was > 10000 nM, the IC50 (second compound 0.0949 µM) was > 10000 nM and the IC50 (second compound 0.3 µM) was > 10000 nM. It also gave a viability, T/C [1] of 113%, a viability, T/C [2] of 93% and a viability, T/C [3] of 86.2%. For the same compound, the viability, T/C [4] was 109%, the viability, T/C [5] was 108% and the viability, T/C [6] was 65.3%. It also gave a viability, T/C [7] of 115%, a viability, T/C [8] of 103% and a viability, T/C [9] of 87.9%. It also gave a viability, T/C [10] of 108%, a viability, T/C [11] of 87% and a viability, T/C [12] of 67.7%. It also gave a viability, T/C [13] of 95%, a viability, T/C [14] of 94.8% and a viability, T/C [15] of 85.3%. The viability, T/C [16] was 96.2%, the viability, T/C [17] was 77.7% and the viability, T/C [18] was 70.6%. It also gave a viability, T/C [19] of 96.8%, a viability, T/C [20] of 89.6% and a viability, T/C [21] of 95.8%. For the same compound, the viability, T/C [22] was 82.4%, the viability, T/C [23] was 64.5% and the viability, T/C [24] was 76%. The viability, T/C [25] was 94.7%, the viability, T/C [26] was 90.8% and the viability, T/C [27] was 81.7%. The viability, T/C [28] was 80.3%, the viability, T/C [29] was 68.1% and the viability, T/C [30] was 75.7%. The viability, T/C [31] was 86.3%, the viability, T/C [32] was 83.9% and the viability, T/C [33] was 77.5%. The viability, T/C [34] was 74.4%, the viability, T/C [35] was 68.9% and the viability, T/C [36] was 71.2%.

From PubChem BioAssay AID2060892 (Molecular Pharmacology Branch, DTP, NCI, 2025)
